Experimental data taken from the supplement of paper PMC10307832.

Experiments:
Assay in all cases: relative viability (nuclei count vs DMSO), 5 days (fraction); higher = more cells survive
[1] = compound: CNC(=O)c1ccccc1Sc1ccc2c(/C=C/c3ccccn3)n[nH]c2c1 [Axitinib] + N=C(N)NC(=N)NCCc1ccccc1 [Phenformin] (partner 250 µM)
Outline: (§1)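 Lung cancer cell lines in 1536-well plates were dosed by pin tool the day after seeding, either with one drug alone or with a fixed anchor-drug dose plus five library-drug doses (not always all listed) in √10 steps. After 5 days, cells were fixed and their nuclei stained in one step (final 0.05% Triton X-100, 1% formaldehyde, 1 ug/ml Hoechst), then counted on 4× images. Relative viability is the nuclei count in treated wells divided by that in vehicle wells. Values are medians of duplicate plates.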

[2] = compound: CC1=CC=C(C=C1)C(=O)CN2C3=C(CCCC3)SC2=N [Pifithrin_alpha] + N=C(N)NC(=N)NCCc1ccccc1 [Phenformin] (partner 250 µM)
Outline: as §1

[3] = compound: Nc1nc(Nc2ccc3c(c2)CC[C@@H](N2CCCC2)CC3)nn1-c1cc2c(nn1)-c1ccccc1CCC2 [Bemcentinib] + Cc1cc(Nc2cc(N3CCN(C)CC3)nc(Sc3ccc(NC(=O)C4CC4)cc3)n2)n[nH]1 [Tozasertib] (partner 0.1 µM)
Outline: as §1

[4] = compound: CNC(=O)c1ccccc1Sc1ccc2c(/C=C/c3ccccn3)n[nH]c2c1 [Axitinib] + C[C@@H](Oc1cc(-c2cnn(C3CCNCC3)c2)cnc1N)c1c(Cl)ccc(F)c1Cl [Crizotinib] (partner 1 µM)
Outline: as §1

Cell Line	relative viability ([1]; first compound 0.005 µM)	relative viability ([1]; first compound 0.01581 µM)	relative viability ([1]; first compound 0.05 µM)	relative viability ([1]; first compound 0.1581 µM)	relative viability ([1]; first compound 0.5 µM)	relative viability ([2]; first compound 1 µM)	relative viability ([2]; first compound 3.162 µM)	relative viability ([2]; first compound 10 µM)	relative viability ([2]; first compound 31.62 µM)	relative viability ([2]; first compound 100 µM)	relative viability ([3]; first compound 0.04 µM)	relative viability ([3]; first compound 0.1265 µM)	relative viability ([3]; first compound 0.4 µM)	relative viability ([3]; first compound 1.265 µM)	relative viability ([3]; first compound 4 µM)	relative viability ([4]; first compound 0.005 µM)	relative viability ([4]; first compound 0.01581 µM)	relative viability ([4]; first compound 0.05 µM)	relative viability ([4]; first compound 0.1581 µM)	relative viability ([4]; first compound 0.5 µM)
NCI-H522	0.537	0.669	0.698	0.555	0.658	0.736	0.63	0.65	0.673	0.693	0.561	0.598	0.638	0.62	0.538					
LU99A	0.784	0.823	0.981	0.88	0.91	0.817	0.809	0.904	0.406	0.763	0.263	0.31	0.248	0.264	0.258	0.552	0.541	0.628	0.525	0.648
NCI-H1437	0.335	0.314	0.357	0.277	0.299	0.296	0.258	0.294	0.264	0.259	0.399	0.435	0.436	0.421	0.401	1.07	0.927	0.863	0.934	0.93
NCI-H460	0.553	0.515	0.583	0.518	0.678	0.494	0.576	0.473	0.179	0.443	0.432	0.619	0.525	0.364	0.524	1.05	0.876	0.915	0.816	1.13
NCI-H1395	0.485	0.382	0.465	0.441	0.45	0.428	0.433	0.411	0.416	0.41	0.759	0.763	0.782	0.739	0.753					
NCI-H2085	0.767	0.728	0.742	0.751	0.733		0.597	0.686	0.65	0.619	0.788	0.974	0.69	0.797	0.757	0.799	0.902	0.794	0.718	0.874
NCI-H1703																0.777	0.27	0.158	0.136	0.237
HCC-366	0.689	0.615	0.631	0.553	0.653	0.662	0.658	0.618		0.533	0.125	0.101	0.119	0.149	0.11	0.628	0.657	0.603	0.487	0.669
NCI-H1648											0.571	0.424	0.584	0.391	0.49					
NCI-H322M	0.886	0.754	0.812	0.712	0.989	0.825	0.728	0.869	0.713	0.728	0.5	0.582	0.483	0.527	0.525	0.889	0.828	0.926	0.888	0.889
201T	0.475	0.412	0.449	0.446	0.399	0.401	0.385	0.383	0.441	0.457	0.932	1.06	0.94	0.868	0.964	1.06	1.05	1.05	1.07	1.02
SK-LU-1	0.601	0.597	0.622	0.558	0.752	0.511	0.624	0.49		0.625	0.342	0.363	0.283	0.367	0.335	0.999	1.12	1.11	1.02	1.1
ChaGo-K-1	0.467	0.428	0.506	0.437	0.469	0.485	0.5	0.491	0.387	0.472	0.217	0.254	0.213	0.229	0.221	1.1	1.17	1.13	1.05	1.15
NCI-H1755	0.62	0.613	0.604	0.634	0.658	0.605	0.603	0.57	0.423	0.53	0.64	0.742	0.626	0.607	0.613	0.955	0.891	0.872	0.863	0.921
Calu-6																0.82	0.795	0.783	0.865	0.961
EBC-1																0.22	0.213	0.192	0.202	0.195
IA-LM																0.95	0.737	1.05	1.04	0.982
NCI-H2342	0.648	0.636	0.636	0.591	0.53	0.484	0.622	0.543	0.585	0.553	0.574	0.429	0.492	0.464	0.516					
SW 900	0.577	0.411	0.464	0.46	0.803	0.519	0.605	0.715	0.569	0.393	0.458	0.807	0.54	0.611	0.529					
NCI-H1623	0.669	0.585	0.315	0.613	0.6	0.556	0.619	0.556	0.465	0.561	0.427	0.438	0.455	0.461	0.442					
A549	0.204	0.198	0.217	0.149	0.216		0.272	0.374	0.315	0.305						0.763	0.734	0.776	0.49	0.744
NCI-H1792	0.323			0.304	0.186	0.292		0.472		0.372						1.02	0.988	0.987	0.962	0.955
